System: panel of cancer cell lines
Assay: Cell viability (CellTiter-Glo) dose-response across cancer cell line panel;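 further: after 72 h compound incubation with CellTiter-Glo ATP readout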
Format: cell-based, human
Conditions: Homo sapiens
Description: Next, we explored the effect of CSN5 inhibition on the viability of cancer cells. To obtain a comprehensive picture, we generated dose–response curves with a CSN5 inhibitor across more than 500 cancer cell lines in a previously described standardized setting[47] (Supplementary Data 1).
A standardized CellTiter-Glo Assay (Promega #G7570) based on the quantification of ATP was applied according to the manufacturer's protocol to measure the amount of viable cells in culture. In brief, cells were seeded into 384-well plates at optimal density for each cell line. After 4 h, compounds were added at different concentrations in growth medium and incubated for another 72 h in a humidifying chamber at 37 °C and 5% CO2. […] EC50 values were calculated from the plot of percentage of inhibition versus inhibitor concentration using the nonlinear regression analysis software Origin 7.5SR6 (OriginLab Corp.).

Compound: COCc1ccccc1NCc1ccc([C@@H]2[C@H](O)CCCc3cncn32)c(-c2ccccc2Cl)c1 [CSN5i-2e, (5R,6R)-5-(2′-chloro-5-(((2-(methoxymethyl)phenyl)amino)methyl)-[1,1′-biphenyl]-2-yl)-6,7,8,9-tetrahydro-5H-imidazo[1,5-a]azepin-6-ol]
- EC50 (MSTO-211H, MSTO-211H cells): 10.8 µM
- EC50 (MV4-11, MV-4-11 cells): 6.71 µM
- EC50 (Malme-3M, Malme-3M cells): 13.6 µM
- EC50 (Mono-Mac-1, MONO-MAC-1 cells): 3.69 µM
- EC50 (NALM-6, NALM-6 cells): 6.94 µM
- EC50 (NB1, NB-1 cells): 11.7 µM
- EC50 (NB-4, NB-4 cells): 8.86 µM
- EC50 (NCI-H23, NCI-H23 cells): 23.9 µM
- EC50 (NCI-H28, NCI-H28 cells): 15 µM
- EC50 (NCI-H146, NCI-H146 cells): 11.6 µM
- EC50 (NCI-H211, NCI-H211 cells): 20.6 µM
- EC50 (NCI-H322, NCI-H322 cells): 12.9 µM
- EC50 (NCI-H441, NCI-H441 cells): 24.7 µM
- EC50 (NCI-H460, NCI-H460 cells): 10.1 µM
- EC50 (NCI-H661, NCI-H661 cells): 20.1 µM
- EC50 (NCI-H747, NCI-H747 cells): 10.7 µM
- EC50 (NCI-H810, NCI-H810 cells): > 30 µM
- EC50 (NCI-H838, NCI-H838 cells): > 30 µM
- EC50 (NCI-H841, NCI-H841 cells): 11 µM
- EC50 (NCI-H1048, NCI-H1048 cells): 15.8 µM
- EC50 (NCI-H1155, NCI-H1155 cells): 8.05 µM
- EC50 (NCI-H1299, NCI-H1299 cells): 8.56 µM
- EC50 (NCI-H1339, NCI-H1339 cells): 11.2 µM
- EC50 (NCI-H1341 cells): 10.2 µM
- EC50 (NCI-H1355, NCI-H1355 cells): 12 µM
- EC50 (NCI-H1373, NCI-H1373 cells): 13 µM
- EC50 (NCI-H1437, NCI-H1437 cells): 11.7 µM
- EC50 (NCI-H1568, NCI-H1568 cells): 11.2 µM
- EC50 (NCI-H1581, NCI-H1581 cells): 7.75 µM
- EC50 (NCI-H1650, NCI-H1650 cells): 12.6 µM
- EC50 (NCI-H1666, NCI-H1666 cells): 12.9 µM
- EC50 (NCI-H1693, NCI-H1693 cells): 14.7 µM
- EC50 (NCI-H1703, NCI-H1703 cells): 6.5 µM
- EC50 (NCI-H1755, NCI-H1755 cells): 12.8 µM
- EC50 (NCI-H1975, NCI-H1975 cells): 11.3 µM
- EC50 (NCI-H2023, NCI-H2023 cells): 12.4 µM
- EC50 (NCI-H2030, NCI-H2030 cells): 29.9 µM
- EC50 (NCI-H2073, NCI-H2073 cells): 20.3 µM
- EC50 (NCI-H2087, NCI-H2087 cells): 13 µM
- EC50 (NCI-H2110, NCI-H2110 cells): 11.8 µM
- EC50 (NCI-H2122, NCI-H2122 cells): 10.1 µM
- EC50 (NCI-H2170, NCI-H2170 cells): 10.4 µM
- EC50 (NCI-H2171, NCI-H2171 cells): 17.6 µM
- EC50 (NCI-H2228, NCI-H2228 cells): > 30 µM
- EC50 (NCI-H2286, NCI-H2286 cells): 10.5 µM
- EC50 (NCI-H2444, NCI-H2444 cells): 11.6 µM
- EC50 (NCI-H2452, NCI-H2452 cells): > 30 µM
- EC50 (NCI-H3255, NCI-H3255 cells): 13.2 µM
- EC50 (NO36 cells): 13.1 µM
- EC50 (NOMO-1, NOMO-1 cells): 7.28 µM
- EC50 (NUGC-3, NUGC-3 cells): 9.54 µM
- EC50 (OCI-AML-3, OCI-AML3 cells): 7.14 µM
- EC50 (OCI-AML-5, OCI-AML5 cells): 9.5 µM
- EC50 (OCI-Ly3, OCI-LY3 cells): 5.42 µM
- EC50 (OCI-M1, OCI-M1 cells): 7.25 µM
- EC50 (ONCO-DG-1, ONCO-DG-1 cells): 7.45 µM
- EC50 (OUMS-23, OUMS-23 cells): 12.2 µM
- EC50 (OV56, OV56 cells): 12.7 µM
- EC50 (OVCAR-4, OVCAR-4 cells): 9.93 µM
- EC50 (OVISE cells): 12.1 µM
- EC50 (P3HR-1, P3HR-1 cells): 7.82 µM
- EC50 (P12-Ichikawa, P12-ICHIKAWA cells): 7.02 µM
- EC50 (P31-FUJ, P31/FUJ cells): 13.4 µM
- EC50 (PANC-1, PANC-1 cells): 12.2 µM
- EC50 (PANC-03-27, Panc 03.27 cells): 21.9 µM
- EC50 (PC-3, PC-3 cells): 10.7 µM
- EC50 (PC-14, PC-14 cells): 12.6 µM
- EC50 (PE/CA-PJ49 cells): 12.7 µM
- EC50 (PF-382, PF-382 cells): 4.99 µM
- EC50 (PK-1, PK-1 cells): 15.9 µM
- EC50 (PK-45H cells): 9.52 µM
- EC50 (PK-59, PK-59 cells): 11.5 µM
- EC50 (PL-21, PL-21 cells): 6.39 µM
- EC50 (PLC-PRF-5, PLC/PRF/5 cells): 19.8 µM
- EC50 (PSN1, PSN1 cells): 11 µM
- EC50 (PaTu 8988s, PA-TU-8988S cells): 26.6 µM
- EC50 (PaTu 8988t, PA-TU-8988T cells): 10.6 µM
- EC50 (Panc 02.03, Panc 02.03 cells): > 30 µM
- EC50 (Panc 04.03, Panc 04.03 cells): 13.1 µM
- EC50 (QGP-1, QGP-1 cells): 11.8 µM
- EC50 (RCM-1, RCM-1 cells): 13.6 µM
- EC50 (RD, RD cells): 9.86 µM
- EC50 (RERF-LC-AI cells): 11.7 µM
- EC50 (RERF-LC-MS cells): 24.1 µM
- EC50 (RKN cells): 28.9 µM
- EC50 (RKO, RKO cells): 17.9 µM
- EC50 (RPMI 8402, RPMI-8402 cells): 7.36 µM
- EC50 (RPMI-7951, RPMI-7951 cells): 11.4 µM
- EC50 (RT-112, RT-112 cells): 11.2 µM
- EC50 (Rh41, RH-41 cells): 4.52 µM
- EC50 (SCC-25, SCC-25 cells): 11.6 µM
- EC50 (SCaBER, SCaBER cells): > 30 µM
- EC50 (SEM cells): 9.47 µM
- EC50 (SF-268, SF-268 cells): 12.7 µM
- EC50 (SH-4, SH-4 cells): 11.1 µM
- EC50 (SH-10-TC, SH-10-TC cells): 10.6 µM
- EC50 (SH-SY5Y, SH-SY5Y cells): 8.13 µM
- EC50 (SJRH30, SJRH30 cells): 15.5 µM
- EC50 (SK-CO-1, SK-CO-1 cells): 10.7 µM
- EC50 (SK-ES1, SK-ES-1 cells): 13.2 µM
- EC50 (SK-HEP1, SK-HEP-1 cells): > 30 µM
- EC50 (SK-LU-1, SK-LU-1 cells): 8.59 µM
- EC50 (SK-MEL3, SK-MEL-3 cells): 10.3 µM
- EC50 (SK-MEL-2, SK-MEL-2 cells): 14.9 µM
- EC50 (SK-MEL-5, SK-MEL-5 cells): 10.6 µM
- EC50 (SK-MEL-28, SK-MEL-28 cells): 13.2 µM
- EC50 (SK-MEL-30, SK-MEL-30 cells): 12.1 µM
- EC50 (SK-MEL-31 cells): 23.9 µM
- EC50 (SK-MES-1, SK-MES-1 cells): 28 µM
- EC50 (SK-N-SH, SK-N-SH cells): 26.6 µM
- EC50 (SKM-1, SKM-1 cells): 13.6 µM
- EC50 (SKNBE2, SK-N-BE(2) cells): 11.4 µM
- EC50 (SNB-19, SNB-19 cells): 25 µM
- EC50 (SNG-M cells): 20.9 µM
- EC50 (SNU668, SNU-668 cells): 11.5 µM
- EC50 (SNU878, SNU-878 cells): 7.43 µM
- EC50 (SNU-8 cells): > 30 µM
- EC50 (SNU-16, SNU-16 cells): 8.93 µM
- EC50 (SNU-61 cells): > 30 µM
- EC50 (SNU-175 cells): 17.1 µM
- EC50 (SNU-213 cells): 13.4 µM
- EC50 (SNU-324 cells): 12.8 µM
- EC50 (SNU-349 cells): > 30 µM
- EC50 (SNU-387, SNU-387 cells): 9.94 µM
- EC50 (SNU-398, SNU-398 cells): 6.84 µM
- EC50 (SNU-410 cells): 22.2 µM
- EC50 (SNU-423, SNU-423 cells): 12.7 µM
- EC50 (SNU-449, SNU-449 cells): 25.6 µM
- EC50 (SNU-475, SNU-475 cells): > 30 µM

— PMC5078989, “Targeted inhibition of the COP9 signalosome for treatment of cancer” (Nature Communications, 2016)
